Experimental data: ChEMBL document CHEMBL1133374, “Chemical synthesis and cytotoxicity of some azinomycin analogues devoid of the 1-azabicyclo[3.1.0]hexane subunit” (Bioorg Med Chem Lett, 2000)

Columns and labels:
Format in all cases: functional, cell-based
HT-29 = assay: The compound was evaluated for the cytotoxicity against human HT-29 (colon) tumor cell lines.
A2780 = assay: The compound was evaluated for the cytotoxicity against human A2780 (ovarian) tumor cell lines.
CH1 = assay: The compound was evaluated for the cytotoxicity against human CH1 (ovarian) tumor cell lines.
A2780cisR = assay: The compound was evaluated for the cytotoxicity against human A2780cisR (ovarian) tumor cell lines.
SK-OV-3 = assay: The compound was evaluated for the cytotoxicity against human SKOV-3 (ovarian) tumor cell lines.

Row | Molecule | IC50 (HT-29; Homo sapiens, HT-29) [nM] | IC50 (A2780) [nM] | IC50 (CH1) [nM] | IC50 (A2780cisR; Homo sapiens, A2780cisR) [nM] | IC50 (SK-OV-3) [nM] | IC50 (HT-29; ht-29) [nM] | IC50 (A2780cisR; a2780cisr) [nM]
1 | C[C@@]1([C@H](OC(=O)c2cnc3ccccc3n2)C(N)=O)CO1 | > 25000 | > 25000 | > 25000 | > 25000 | > 25000 |  | 
2 | CISPLATIN |  |  |  |  |  | 1700 | 3000
3 | C[C@@]1([C@H](OC(=O)c2cccc3ccccc23)C(N)=O)CO1 | 2150 | 440 | 550 | 1100 | 5100 |  | 
4 | COc1cc(C(=O)O[C@H](C(N)=O)[C@]2(C)CO2)c2cccc(C)c2c1 | 330 | < 50 | < 50 | 76 | 1250 |  | 
5 | COc1cc(C(=O)O[C@H](C(N)=O)[C@@]2(C)CO2)c2cccc(C)c2c1 | 610 | 58 | 62 | 155 | 2300 |  | 
6 | CCOc1cc(C(=O)O[C@H](C(N)=O)[C@]2(C)CO2)c2cccc(C)c2c1 | 4300 | 1800 | 1400 | 3500 | 12000 |  | 
7 | CO[C@@]12[C@H](COC(N)=O)C3=C(C(=O)C(C)=C(N)C3=O)N1C[C@@H]1N[C@@H]12 [MITOMYCIN] | 40 | 50 | 40 | 60 | 200 |  | 
8 | CC1([C@H](OC(=O)c2cccc3ccccc23)C(N)=O)CC1 | > 25000 | > 25000 | > 25000 | > 25000 | > 25000 |  | 
9 | C[C@@]1([C@H](OC(=O)c2ccccc2)C(N)=O)CO1 | > 25000 | 20500 | > 25000 | > 25000 | > 25000 |  | 
10 | C[C@@]1([C@H](OC(=O)c2ccc3ccccc3c2)C(N)=O)CO1 | 2600 | 390 | 170 | 1350 | 13000 |  | 
11 | CCOC(=O)[C@@H](NC(=O)[C@@H](OC(=O)c1ccc(C)c2cc(OC)ccc12)[C@]1(C)CO1)C(C)C | 2250 | 350 | 315 | 560 | 2950 |  | 
12 | CCOC(=O)CNC(=O)[C@@H](OC(=O)c1cc(OC)cc2c(C)cccc12)[C@]1(C)CO1 | 2250 | 340 | 260 | 830 | 7300 |  | 
